Read-outs that look alike come from different tables or passages of the source.
Tests used:
REH [1] = experiment: Cell viability (CellTiter Glo), library of cancer drugs, individual or sample compression with randomized (alphabetical) pools, REH; format: cell-based
Experimental: (§1) Total cell viability was measured for each sample using an ATP-based luminescence assay (i.e., CellTiter Glo). Each cancer drug was then screened at multiple concentrations ranging from one nM to ten μM in order to generate a dose-response curve and calculate a DRS for each cancer cell line.
(§2) Each cancer drug was cultured with target cells individually. At the end of the screen, samples were either analyzed individually or compressed into pools for analysis. The library was compressed alphabetically into ten cohorts, each of which contained seven cancer drugs present in three out of the seven pools, as shown in Table VII. Said another way, the screening platform 210 generated a “7 pick 3” compressed library by assigning the cancer drugs among different pools. […] The library was also compressed into ten cohorts with pools designed based on information known about each cancer drug, as shown in Table VIII. After cell viability measurement and DRS calculation, the DRS of each cancer drug in the samples generated based on the pools were deconvoluted and compared to the DRS for each cancer drug measured individually.
(§3) In SUM-based deconvolution, an assumption of additivity is used to quantify the individual effects of each perturbation on each target. Additivity implies that each perturbation effect on each target is positively contributing to the overall effect measured for that pool. This is an accurate assumption for certain experiments, such as when targets or samples are compressed. When targets are pooled—or when samples containing different targets are pooled—the effect of each perturbation on each individual target is diluted. In other words, each perturbation has an isolated effect on a target in culture, and the sum total of the isolated effects are measured when pooled. Therefore, SUM-based deconvolution breaks down the sum total measured for a pool and assigns estimated fractional effects to each compressed perturbation or target in the pool. The screening platform 210 used SUM-based deconvolution for all target and sample compression experiments described above.

MOLT-4 [2] = experiment: Cell viability (CellTiter Glo), compressed perturbation pools with informed pool design, MAX-based deconvolution, MOLT-4;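 further: higher DRS means a larger drug effect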
Experimental: as §1, §2
(§4) In parallel to the exemplary sample compression screen covered in Table VII, perturbations were compressed into pools and then screened. The pools were designed using drug class as a feature with two compression rules (or simply “rules”). The first rule required that drugs from the same class be separated into different cohorts (i.e., mutually exclusive groups of pools). […] A benefit of compressing perturbations is the ability to measure additive, antagonistic, and synergistic effects between drugs in the same pool. However, these effects can negatively impact deconvolution of individual drug effects. Therefore, combinations of drugs for which evidence of clinical toxicity exists can be assigned to different pools in accordance with an informed pooling operation. As new preclinical or clinical evidence of toxic combinations becomes available, the rules implemented by the screening platform 210—and more specifically, its algorithm for compressing members of a library—can be updated accordingly.
(§5) In MAX-based deconvolution, an assumption of neutrality between the compressed perturbations is made. In other words, the perturbation with the largest effect is assumed to be masking the effects, if any, of the other perturbations in the pool. For SUM- and MAX-based deconvolution, qualitative deconvolution is first performed to rank the perturbations in each pool based on size of expected effect. Qualitative deconvolution, as described above, ranks the perturbations in a pool from largest effect size to smallest effect size. The ranking is based on the overlap of each perturbation's unique subset of pools with the highest and lowest measured pools. The perturbation with the largest effect is expected to be present in the pools with the highest measured signal or corresponding metric (e.g., DRS), while the perturbation with the smallest effect is expected to be present in the pools with the lowest measured signal or corresponding metric (e.g., DRS).
(§6) For MAX-based deconvolution, the highest ranked perturbation in the rank order is first assigned an effect size based on the pool with the lowest measured signal or corresponding metric (e.g., DRS) that it is present in. Said another way, the screening platform 210 can identify the highest ranked perturbation in the rank order and then assign an effect size based on the measured signal or corresponding metric (e.g., DRS) of the “weakest” pool in which the highest ranked perturbation is included. The screening platform 210 can repeat this step for the next highest ranked perturbation, and so on until the measurements for each pool have been assigned to one of the perturbations. The effects for the remaining perturbations can be assigned a value of zero, since it is assumed that their effect is masked by the perturbation with the largest effect in each pool.

MOLT-4 [3] = experiment: Cell viability (CellTiter Glo), library of cancer drugs, individual or sample compression with randomized (alphabetical) pools, MOLT-4; format: cell-based
Experimental: as §1, §2, §3

REH [4] = experiment: Cell viability (CellTiter Glo), compressed perturbation pools with informed pool design, MAX-based deconvolution, REH;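 further: higher DRS means a larger drug effect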
Experimental: as §1, §2, §4, §5, §6

[5] = REH, None (measured individually)
[6] = REH, Samples, 7 Pick 3 randomized (alphabetical) sample pools
[7] = MOLT-4, None (measured individually), informed pool design table
[8] = MOLT-4, Samples, 7 Pick 3 informed perturbation pools
[9] = MOLT-4, None (measured individually)
[10] = MOLT-4, Samples, 7 Pick 3 randomized (alphabetical) sample pools
[11] = REH, None (measured individually), informed pool design table
[12] = REH, Samples, 7 Pick 3 informed perturbation pools

Row | SMILES | DRS (REH [1]) | DRS from deconvolution (REH [1]) | DRS (MOLT-4 [2]) | DRS from MAX-based deconvolution (MOLT-4 [2]) | DRS (MOLT-4 [3]) | DRS from deconvolution (MOLT-4 [3]) | DRS (REH [4]) | DRS from MAX-based deconvolution (REH [4]) | DRS (REH [1]; [5]) | DRS from deconvolution (REH [1]; [6]) | DRS (MOLT-4 [2]; [7]) | DRS from MAX-based deconvolution (MOLT-4 [2]; [8]) | DRS (MOLT-4 [3]; [9]) | DRS from deconvolution (MOLT-4 [3]; [10]) | DRS (REH [4]; [11]) | DRS from MAX-based deconvolution (REH [4]; [12])
1 | CC(C)(O)CNc1nc(Nc2ccnc(C(F)(F)F)c2)nc(-c2cccc(C(F)(F)F)n2)n1 [Enasidenib] | 0.00 | 0.00 | 0.00 | 0.00 | 0.00 | 0.00 | 0.00 | 0.00 | – | – | – | – | – | – | – | –
2 | CC#CC(=O)N1CCC[C@H]1c1nc(-c2ccc(C(=O)Nc3ccccn3)cc2)c2c(N)nccn12 [Acalabrutinib] | – | – | – | – | – | – | – | – | 0.00 | 0.00 | 0.00 | 0.00 | 0.00 | 0.00 | 0.00 | 0.00
3 | CS(=O)(=O)c1ccc(C(=O)Nc2ccc(Cl)c(-c3ccccn3)c2)c(Cl)c1 [Vismodegib] | – | – | – | – | – | – | – | – | 0.00 | 0.00 | 4.08 | 4.35 | 0.70 | 0.56 | 2.58 | 3.06
4 | C[C@]12CC[C@H](O)CC1=CC[C@@H]1[C@@H]2CC[C@]2(C)C(c3cccnc3)=CC[C@@H]12 [Abiraterone] | – | – | – | – | – | – | – | – | 0.27 | 0.29 | 0.00 | 0.00 | 0.27 | 0.30 | 0.20 | 0.00
5 | Cc1cn(-c2cc(NC(=O)c3ccc(C)c(Nc4nccc(-c5cccnc5)n4)c3)cc(C(F)(F)F)c2)cn1 [Nilotinib] | – | – | – | – | – | – | – | – | 2.85 | 2.97 | 0.00 | 0.00 | 3.95 | 3.88 | 0.00 | 0.00
6 | CNC(=O)c1ccc(N2C(=S)N(c3ccc(C#N)c(C(F)(F)F)c3)C(=O)C2(C)C)cc1F [Enzalutamide] | – | – | – | – | – | – | – | – | 0.00 | 0.00 | 25.00 | 28.24 | 0.00 | 0.00 | 27.70 | 31.61
7 | CN1CC[C@@H](NC(=O)Nc2ccc(C#N)cc2)C[C@@H]1c1nc2ccccc2[nH]1 [Glasdegib] | – | – | – | – | – | – | – | – | 1.63 | 1.45 | 0.00 | 0.00 | 0.03 | 0.00 | 0.00 | 0.00
8 | COc1cc2c(Nc3ccc(Br)cc3F)ncnc2cc1OCC1CCN(C)CC1 [Vandetanib] | – | – | – | – | – | – | – | – | 3.01 | 2.79 | 2.19 | 2.51 | 3.01 | 3.12 | 7.39 | 9.02
9 | Cc1cc(Nc2ncnc3ccc(NC4=NC(C)(C)CO4)cc23)ccc1Oc1ccn2ncnc2c1 [Tucatinib] | – | – | – | – | – | – | – | – | 0.30 | 0.21 | 0.80 | 0.00 | 0.00 | 0.00 | 0.91 | 0.00
10 | Nc1cc(F)ccc1NC(=O)c1ccc(CNC(=O)/C=C/c2cccnc2)cc1 [Tucidinostat] | – | – | – | – | – | – | – | – | 10.87 | 11.23 | 0.50 | 0.00 | 6.77 | 7.95 | 2.40 | 0.00
11 | COC(=O)N[C@@H](C)CNc1nccc(-c2cn(C(C)C)nc2-c2cc(Cl)cc(NS(C)(=O)=O)c2F)n1 [Encorafenib] | – | – | – | – | – | – | – | – | 1.84 | 2.10 | 4.30 | 0.00 | 0.24 | 0.21 | 0.70 | 0.00
12 | C[C@H]1Oc2cc(cnc2N)-c2c(nn(C)c2C#N)CN(C)C(=O)c2ccc(F)cc21 [Lorlatinib] | – | – | – | – | – | – | – | – | 0.00 | 0.00 | 0.00 | 0.00 | 0.00 | 0.00 | 0.00 | 0.00
13 | C[C@]12CC[C@@H]3c4ccc(O)cc4C[C@@H](CCCCCCCCC[S+]([O-])CCCC(F)(F)C(F)(F)F)[C@H]3[C@@H]1CC[C@@H]2O (stereo partly drawn) [Fulvestrant] | – | – | – | – | – | – | – | – | 0.21 | 0.00 | 0.00 | 0.00 | 0.01 | 0.00 | 0.00 | 0.00
14 | N#CC[C@H](C1CCCC1)n1cc(-c2ncnc3[nH]ccc23)cn1 [Ruxolitinib] | – | – | – | – | – | – | – | – | 0.00 | 0.00 | 0.00 | 0.00 | 1.60 | 1.74 | 0.60 | 0.00
15 | CC/C(=C(\c1ccccc1)c1ccc(OCCN(C)C)cc1)c1ccccc1 [Tamoxifen] | – | – | – | – | – | – | – | – | 3.12 | 3.01 | 0.74 | 0.00 | 1.12 | 1.09 | 0.14 | 0.00

— US20260378560A1, “APPROACHES TO DESIGNING AND PERFORMING COMPRESSED BIOLOGICAL EXPERIMENTS AND SYSTEMS FOR IMPLEMENTING THE SAME” (EXVIVO LABS INC., priority 2023, published 2026)
